Source: ChEMBL document CHEMBL1140860, “Synthesis and evaluation of dihydroartemisinin and dihydroartemisitene acetal dimers showing anticancer and antiprotozoal activity” (Bioorg Med Chem, 2009)

Experiments:
CCRF-CEM = assay: Growth inhibition of human CCRF-CEM cells after 48 hrs by sulforhodamine B assay; type: functional
HL-60 = assay: Growth inhibition of human HL-60(TB) cells after 48 hrs by sulforhodamine B assay; type: functional; details: HL-60, 48 h
[1] = Growth inhibition of human […] cells after 48 hrs by sulforhodamine B assay; type: functional
SR = assay: Growth inhibition of human SR cells after 48 hrs by sulforhodamine B assay; type: functional
A549 = assay: Growth inhibition of human A549 cells after 48 hrs by sulforhodamine B assay; type: functional; details: A549, 48 h
HCT-116 = assay: Growth inhibition of human HCT116 cells after 48 hrs by sulforhodamine B assay; type: functional; details: HCT-116, 48 h
HCT-15 = assay: Growth inhibition of human HCT15 cells after 48 hrs by sulforhodamine B assay; type: functional; details: HCT-15, 48 h
KM12 = assay: Growth inhibition of human KM12 cells after 48 hrs by sulforhodamine B assay; type: functional; details: KM12, 48 h
SW-620 = assay: Growth inhibition of human SW620 cells after 48 hrs by sulforhodamine B assay; type: functional; details: SW-620, 48 h
SF-268 = assay: Growth inhibition of human SF268 cells after 48 hrs by sulforhodamine B assay; type: functional; details: SF-268, 48 h
SF-295 = assay: Growth inhibition of human SF295 cells after 48 hrs by sulforhodamine B assay; type: functional; details: SF-295, 48 h
SNB-75 = assay: Growth inhibition of human SNB75 cells after 48 hrs by sulforhodamine B assay; type: functional; details: SNB-75, 48 h
U-251 = assay: Growth inhibition of human U251 cells after 48 hrs by sulforhodamine B assay; type: functional; details: U-251, 48 h
LOX IMVI = assay: Growth inhibition of human LOXIMVI cells after 48 hrs by sulforhodamine B assay; type: functional
M14 = assay: Growth inhibition of human M14 cells after 48 hrs by sulforhodamine B assay; type: functional; details: M14, 48 h
Malme-3M = assay: Growth inhibition of human MALME-3M cells after 48 hrs by sulforhodamine B assay; type: functional
SK-MEL-2 = assay: Growth inhibition of human SK-MEL-2 cells after 48 hrs by sulforhodamine B assay; type: functional; details: SK-MEL-2, 48 h
SK-MEL-28 = assay: Growth inhibition of human SK-MEL-28 cells after 48 hrs by sulforhodamine B assay; type: functional; details: SK-MEL-28, 48 h
SK-MEL-5 = assay: Growth inhibition of human SK-MEL-5 cells after 48 hrs by sulforhodamine B assay; type: functional; details: SK-MEL-5, 48 h
UACC-257 = assay: Growth inhibition of human UACC257 cells after 48 hrs by sulforhodamine B assay; type: functional; details: UACC-257, 48 h
UACC-62 = assay: Growth inhibition of human UACC62 cells after 48 hrs by sulforhodamine B assay; type: functional; details: UACC-62, 48 h
IGROV-1 = assay: Growth inhibition of human IGROV1 cells after 48 hrs by sulforhodamine B assay; type: functional; details: IGROV-1, 48 h
OVCAR-4 = assay: Growth inhibition of human OVCAR4 cells after 48 hrs by sulforhodamine B assay; type: functional; details: OVCAR-4, 48 h
OVCAR-5 = assay: Growth inhibition of human OVCAR5 cells after 48 hrs by sulforhodamine B assay; type: functional; details: OVCAR-5, 48 h
OVCAR-8 = assay: Growth inhibition of human OVCAR8 cells after 48 hrs by sulforhodamine B assay; type: functional; details: OVCAR-8, 48 h
SK-OV-3 = assay: Growth inhibition of human SKOV3 cells after 48 hrs by sulforhodamine B assay; type: functional; details: SK-OV-3, 48 h
786-0 = assay: Growth inhibition of human 786-0 cells after 48 hrs by sulforhodamine B assay; type: functional; details: 786-0, 48 h
CAKI-1 = assay: Growth inhibition of human Caki1 cells after 48 hrs by sulforhodamine B assay; type: functional; details: CAKI-1, 48 h
RXF 393 = assay: Growth inhibition of human RXF393 cells after 48 hrs by sulforhodamine B assay; type: functional; details: RXF 393, 48 h
SN12C = assay: Growth inhibition of human SN12C cells after 48 hrs by sulforhodamine B assay; type: functional
TK-10 = assay: Growth inhibition of human TK10 cells after 48 hrs by sulforhodamine B assay; type: functional; details: TK-10, 48 h
UO-31 = assay: Growth inhibition of human UO31 cells after 48 hrs by sulforhodamine B assay; type: functional; details: UO-31, 48 h
PC-3 = assay: Growth inhibition of human PC3 cells after 48 hrs by sulforhodamine B assay; type: functional; details: PC-3, 48 h
DU-145 = assay: Growth inhibition of human DU145 cells after 48 hrs by sulforhodamine B assay; type: functional; details: DU-145, 48 h
MCF7 = assay: Growth inhibition of human MCF7 cells after 48 hrs by sulforhodamine B assay; type: functional; details: MCF7, 48 h
[2] = Growth inhibition of human Hs 578T cells after 48 hrs by sulforhodamine B assay; type: functional
MDA-N = assay: Growth inhibition of human MDA-N cells after 48 hrs by sulforhodamine B assay; type: functional
BT-549 = assay: Growth inhibition of human BT549 cells after 48 hrs by sulforhodamine B assay; type: functional; details: BT-549, 48 h
Plasmodium falciparum [3] = assay: Antimalarial activity after 72 hrs against chloroquine-sensitive Plasmodium falciparum D6 infected in erythrocytes by LDH assay; type: functional, organism-based; details: D6, 72 h
Plasmodium falciparum [4] = assay: Antimalarial activity after 72 hrs against chloroquine-resistant Plasmodium falciparum W2 infected erythrocytes by LDH assay; type: functional, organism-based; details: W2, 72 h
[5] = Selectivity index, ratio of TC50 for african green monkey (Cercopithecus aethiops) Vero cells to IC50 for chloroquine-resistant Plasmodium falciparum W2; type: toxicity, cell-based
EKVX = assay: Growth inhibition of human EKVX cells after 48 hrs by sulforhodamine B assay; type: functional
HOP-62 = assay: Growth inhibition of human HOP62 cells after 48 hrs by sulforhodamine B assay; type: functional; details: HOP-62, 48 h
HOP-92 = assay: Growth inhibition of human HOP92 cells after 48 hrs by sulforhodamine B assay; type: functional; details: HOP-92, 48 h
NCI-H226 = assay: Growth inhibition of human NCI-H226 cells after 48 hrs by sulforhodamine B assay; type: functional; details: NCI-H226, 48 h
NCI-H23 = assay: Growth inhibition of human NCI-H23 cells after 48 hrs by sulforhodamine B assay; type: functional; details: NCI-H23, 48 h
NCI-H322M = assay: Growth inhibition of human NCI-H322M cells after 48 hrs by sulforhodamine B assay; type: functional
NCI-H460 = assay: Growth inhibition of human NCI-H460 cells after 48 hrs by sulforhodamine B assay; type: functional; details: NCI-H460, 48 h
NCI-H522 = assay: Growth inhibition of human NCI-H522 cells after 48 hrs by sulforhodamine B assay; type: functional; details: NCI-H522, 48 h
COLO 205 = assay: Growth inhibition of human COLO205 cells after 48 hrs by sulforhodamine B assay; type: functional; details: COLO 205, 48 h

Which results are given for C[C@H]1[C@@H](OCCO[C@H]2O[C@@H]3O[C@@]4(C)CC[C@H]5[C@H](C)CC[C@@H]([C@H]2C)[C@@]35OO4)O[C@@H]2O[C@@]3(C)CC[C@H]4[C@H](C)CC[C@@H]1[C@@]24OO3?
GI50 (CCRF-CEM): 68 nM; GI50 (HL-60): 29 nM; GI50 [1]: < 10 nM; GI50 (SR): 77 nM; GI50 (A549): 63 nM; GI50 (HCT-116): 26 nM; GI50 (HCT-15): 19 nM; GI50 (KM12): 81 nM; GI50 (SW-620): 70 nM; GI50 (SF-268): 460 nM; GI50 (SF-295): 800 nM; GI50 (SNB-75): 887 nM; GI50 (U-251): 267 nM; GI50 (LOX IMVI): 72 nM; GI50 (M14): 183 nM; GI50 (Malme-3M): 504 nM; GI50 (SK-MEL-2): 243 nM; GI50 (SK-MEL-28): 32500 nM; GI50 (SK-MEL-5): 316 nM; GI50 (UACC-257): 343 nM; GI50 (UACC-62): 343 nM; GI50 (IGROV-1): 65 nM; GI50 (OVCAR-4): 36 nM; GI50 (OVCAR-5): 83 nM; GI50 (OVCAR-8): 179 nM; GI50 (SK-OV-3): 798 nM; GI50 (786-0): 305 nM; GI50 (CAKI-1): 297 nM; GI50 (RXF 393): 10600 nM; GI50 (SN12C): 540 nM; GI50 (TK-10): 206 nM; GI50 (UO-31): 469 nM; GI50 (PC-3): 10 nM; GI50 (DU-145): 220 nM; GI50 (MCF7): 34 nM; GI50 [2]: 656 nM; GI50 (MDA-N): 219 nM; GI50 (BT-549): 14300 nM; IC50 (Plasmodium falciparum [3]): 1700 nM; IC50 (Plasmodium falciparum [4]): 1200 nM; selectivity ratio [5]: > 64; GI50 (EKVX): 146 nM; GI50 (HOP-62): 107 nM; GI50 (HOP-92): 149 nM; GI50 (NCI-H226): 321 nM; GI50 (NCI-H23): 1150 nM; GI50 (NCI-H322M): > 100000 nM; GI50 (NCI-H460): 150 nM; GI50 (NCI-H522): 69 nM; GI50 (COLO 205): 490 nM

Which GI50 (CCRF-CEM) does the source give for COCC(CO[C@H]1O[C@@H]2O[C@@]3(C)CC[C@H]4[C@H](C)CC[C@@H]([C@H]1C)[C@@]24OO3)O[C@H]1O[C@@H]2O[C@@]3(C)CC[C@H]4[C@H](C)CC[C@@H]([C@H]1C)[C@@]24OO3 (stereo not given in full) here?
The GI50 was 19 nM.

What about the GI50 (HL-60) of the same compound?
Its GI50 is 28 nM.

And the GI50 [1]?
The GI50 was 4 nM.

What about the GI50 (SR) of the same compound?
Its GI50 is 15 nM.

What about the GI50 (A549) of the same compound?
Its GI50 is 61 nM.

And the GI50 (HCT-116)?
The GI50 was 12 nM.

And the GI50 (HCT-15)?
Its GI50 is 17 nM.

And the GI50 (KM12)?
Its GI50 is 18 nM.

What about the GI50 (SW-620) of the same compound?
The GI50 was 15 nM.

What about the GI50 (SF-268) of the same compound?
Its GI50 is 6290 nM.

What about the GI50 (SF-295) of the same compound?
Its GI50 is 4630 nM.

And the GI50 (SNB-75)?
The GI50 was 22600 nM.

What about the GI50 (U-251) of the same compound?
The GI50 was 21 nM.

What about the GI50 (LOX IMVI) of the same compound?
Its GI50 is 23 nM.

What about the GI50 (M14) of the same compound?
The GI50 was 49 nM.

And the GI50 (Malme-3M)?
Its GI50 is 8130 nM.

What about the GI50 (SK-MEL-2) of the same compound?
The GI50 was 122 nM.

What about the GI50 (SK-MEL-28) of the same compound?
Its GI50 is 5750 nM.

And the GI50 (SK-MEL-5)?
Its GI50 is 496 nM.

And the GI50 (UACC-257)?
The GI50 was 159 nM.

And the GI50 (UACC-62)?
The GI50 was 135 nM.

What about the GI50 (IGROV-1) of the same compound?
The GI50 was 4200 nM.

And the GI50 (OVCAR-4)?
The GI50 was 5690 nM.

And the GI50 (OVCAR-5)?
Its GI50 is 104 nM.

What about the GI50 (OVCAR-8) of the same compound?
The GI50 was 130 nM.

And the GI50 (SK-OV-3)?
The GI50 was 10900 nM.

What about the GI50 (786-0) of the same compound?
Its GI50 is 185 nM.

And the GI50 (CAKI-1)?
Its GI50 is 192 nM.

What about the GI50 (RXF 393) of the same compound?
Its GI50 is 2970 nM.

What about the GI50 (SN12C) of the same compound?
Its GI50 is 153 nM.

What about the GI50 (TK-10) of the same compound?
The GI50 was 58 nM.

What about the GI50 (UO-31) of the same compound?
The GI50 was 125 nM.

And the GI50 (PC-3)?
The GI50 was 19 nM.

And the GI50 (DU-145)?
The GI50 was 8340 nM.

What about the GI50 (MCF7) of the same compound?
The GI50 was 150 nM.

What about the GI50 [2] of the same compound?
Its GI50 is 74 nM.

And the GI50 (MDA-N)?
The GI50 was 518 nM.

And the GI50 (BT-549)?
Its GI50 is 7520 nM.

And the IC50 (Plasmodium falciparum [3])?
Its IC50 is 17200 nM.

What about the IC50 (Plasmodium falciparum [4]) of the same compound?
Its IC50 is 4700 nM.

And the selectivity ratio [5]?
The selectivity ratio was greater than 159.

And the GI50 (EKVX)?
Its GI50 is 689 nM.

What about the GI50 (HOP-62) of the same compound?
The GI50 was 5620 nM.

And the GI50 (HOP-92)?
Its GI50 is 71 nM.

What about the GI50 (NCI-H226) of the same compound?
The GI50 was 87 nM.

What about the GI50 (NCI-H23) of the same compound?
The GI50 was 81 nM.

And the GI50 (NCI-H322M)?
Its GI50 is 5960 nM.

What about the GI50 (NCI-H460) of the same compound?
The GI50 was 81 nM.

What about the GI50 (NCI-H522) of the same compound?
Its GI50 is 58 nM.

What about the GI50 (COLO 205) of the same compound?
The GI50 was 11 nM.
